Tests used:
Assay in all cases: scanMAX kinase assay panel
Assay type in all cases: binding
Settings in all cases: read-out: control percentage (% control)
SNARK = target: T1, SNARK (Homo sapiens, UniProt Q9H093)
T1 construct: purchased DiscoverX
Protocol: (§1) The activities of the compounds according to the present invention to more diverse enzymes were evaluated. Specifically, it was decided that the enzyme selectivity of Example 74 selected from the compounds of Examples 1 to 129 was measured at the request of DiscoverX, and the experiment was conducted using a scanMAX™ kinase assay panel. At this time, as a drug to treat the enzyme, a solution prepared by dissolving in DMSO at a concentration of 1 μM was used, and the control percentage (% control) was determined by the method of Equation 1 below, and the results were shown in Table 2 below.
(§2) In Equation above, the positive control and negative control mean compounds showing control percentages of 0% and 100% as DMSO, respectively.

EGFR(L861Q) = target: T2, EGFR(L861Q) (Homo sapiens, UniProt P00533, L861Q)
T2 construct: purchased DiscoverX scanMAX kinase assay panel
Protocol: as §1, §2

MAP4K5 = target: T3, MAP4K5 (Homo sapiens, UniProt Q9Y4K4)
T3 construct: purchased DiscoverX scanMAX kinase assay panel
Protocol: as §1, §2

LRRK2 = target: T4, LRRK2 (Homo sapiens, UniProt Q5S007)
T4 construct: purchased DiscoverX scanMAX kinase assay panel
Protocol: as §1, §2

[1] = target: T5, ABL1(T315I)-phosphoryIated (Homo sapiens, UniProt P00519, T315I)
T5 construct: purchased DiscoverX (scanMAX panel, contract assay)
Protocol: as §1, §2

FLT3(N841I) = target: T6, FLT3(N841I) (Homo sapiens, UniProt P36888, N841I)
T6 construct: purchased DiscoverX scanMAX kinase assay panel
Protocol: as §1, §2

[2] = target: T7, ABL1(Q252H)-nonphosphorylated (Homo sapiens, UniProt P00519, Q252H)
T7 construct: purchased DiscoverX (scanMAX panel, contract assay)
Protocol: as §1, §2

VRK2 = target: T8, VRK2 (Homo sapiens, UniProt Q86Y07)
T8 construct: purchased DiscoverX
Protocol: as §1, §2

DYRK1B = target: T9, DYRK1B (Homo sapiens, UniProt Q9Y463)
T9 construct: purchased DiscoverX scanMAX kinase assay panel
Protocol: as §1, §2

EGFR(L858R, T790M) = target: T10, EGFR(L858R, T790M) (Homo sapiens, UniProt P00533, L858R/T790M)
T10 construct: purchased DiscoverX scanMAX kinase assay panel
Protocol: as §1, §2

JNK1 = target: T11, JNK1 (Homo sapiens, UniProt P45983)
T11 construct: purchased DiscoverX scanMAX kinase assay panel
Protocol: as §1, §2

JNK2 = target: T12, JNK2 (Homo sapiens, UniProt P45984)
T12 construct: purchased DiscoverX scanMAX kinase assay panel
Protocol: as §1, §2

PRP4 = target: T13, PRP4 (Homo sapiens, UniProt Q13523)
T13 construct: purchased DiscoverX scanMAX kinase assay panel
Protocol: as §1, §2

CDK4-cyclinD3 = target: T14, CDK4-cyclinD3 (Homo sapiens, UniProt P11802)
T14 construct: purchased DiscoverX (scanMAX panel, contract assay)
Protocol: as §1, §2

[3] = target: T15, RSK3(Kin.Dom.2-C-terminal) (Homo sapiens, UniProt Q15349)
T15 construct: RSK3(Kin.Dom.2-C-terminal); purchased DiscoverX scanMAX kinase assay panel
Protocol: as §1, §2

[4] = target: T16, TYK2(JH2domain-pseudokinase) (Homo sapiens, UniProt P29597)
T16 construct: TYK2(JH2domain-pseudokinase); purchased DiscoverX
Protocol: as §1, §2

LCK = target: T17, LCK (Homo sapiens, UniProt P06239)
T17 construct: purchased DiscoverX scanMAX kinase assay panel
Protocol: as §1, §2

FLT3(D835Y) = target: T18, FLT3(D835Y) (Homo sapiens, UniProt P36888, D835Y)
T18 construct: purchased DiscoverX scanMAX kinase assay panel
Protocol: as §1, §2

RET(M918T) = target: T19, RET(M918T) (Homo sapiens, UniProt P07949, M918T)
T19 construct: purchased DiscoverX scanMAX kinase assay panel
Protocol: as §1, §2

BIKE = target: T20, BIKE (Homo sapiens, UniProt Q9NSY1)
T20 construct: purchased DiscoverX (scanMAX panel, contract assay)
Protocol: as §1, §2

EPHB4 = target: T21, EPHB4 (Homo sapiens, UniProt P54760)
T21 construct: purchased DiscoverX scanMAX kinase assay panel
Protocol: as §1, §2

FLT3(D835V) = target: T22, FLT3(D835V) (Homo sapiens, UniProt P36888, D835V)
T22 construct: purchased DiscoverX scanMAX kinase assay panel
Protocol: as §1, §2

DLK = target: T23, DLK (Homo sapiens, UniProt Q12852)
T23 construct: purchased DiscoverX scanMAX kinase assay panel
Protocol: as §1, §2

FLT3(K663Q) = target: T24, FLT3(K663Q) (Homo sapiens, UniProt P36888, K663Q)
T24 construct: purchased DiscoverX scanMAX kinase assay panel
Protocol: as §1, §2

PYK2 = target: T25, PYK2 (Homo sapiens, UniProt Q14289)
T25 construct: purchased DiscoverX scanMAX kinase assay panel
Protocol: as §1, §2

SRPK3 = target: T26, SRPK3 (Homo sapiens, UniProt Q9UPE1)
T26 construct: purchased DiscoverX
Protocol: as §1, §2

MST3 = target: T27, MST3 (Homo sapiens, UniProt Q9Y6E0)
T27 construct: purchased DiscoverX scanMAX kinase assay panel
Protocol: as §1, §2

MET = target: T28, MET (Homo sapiens, UniProt P08581)
T28 construct: purchased DiscoverX scanMAX kinase assay panel
Protocol: as §1, §2

TTK = target: T29, TTK (Homo sapiens, UniProt P33981)
T29 construct: purchased DiscoverX
Protocol: as §1, §2

LOK = target: T30, LOK (Homo sapiens, UniProt O94804)
T30 construct: purchased DiscoverX scanMAX kinase assay panel
Protocol: as §1, §2

[5] = target: T31, JAK3(JH1domain-catalytic) (Homo sapiens, UniProt P52333)
T31 construct: JAK3(JH1domain-catalytic); purchased DiscoverX scanMAX kinase assay panel
Protocol: as §1, §2

TNIK = target: T32, TNIK (Homo sapiens, UniProt Q9UKE5)
T32 construct: purchased DiscoverX
Protocol: as §1, §2

MERTK = target: T33, MERTK (Homo sapiens, UniProt Q12866)
T33 construct: purchased DiscoverX scanMAX kinase assay panel
Protocol: as §1, §2

STK16 = target: T34, STK16 (Homo sapiens, UniProt O75716)
T34 construct: purchased DiscoverX
Protocol: as §1, §2

T20 sequence (Q9NSY1 whole entry): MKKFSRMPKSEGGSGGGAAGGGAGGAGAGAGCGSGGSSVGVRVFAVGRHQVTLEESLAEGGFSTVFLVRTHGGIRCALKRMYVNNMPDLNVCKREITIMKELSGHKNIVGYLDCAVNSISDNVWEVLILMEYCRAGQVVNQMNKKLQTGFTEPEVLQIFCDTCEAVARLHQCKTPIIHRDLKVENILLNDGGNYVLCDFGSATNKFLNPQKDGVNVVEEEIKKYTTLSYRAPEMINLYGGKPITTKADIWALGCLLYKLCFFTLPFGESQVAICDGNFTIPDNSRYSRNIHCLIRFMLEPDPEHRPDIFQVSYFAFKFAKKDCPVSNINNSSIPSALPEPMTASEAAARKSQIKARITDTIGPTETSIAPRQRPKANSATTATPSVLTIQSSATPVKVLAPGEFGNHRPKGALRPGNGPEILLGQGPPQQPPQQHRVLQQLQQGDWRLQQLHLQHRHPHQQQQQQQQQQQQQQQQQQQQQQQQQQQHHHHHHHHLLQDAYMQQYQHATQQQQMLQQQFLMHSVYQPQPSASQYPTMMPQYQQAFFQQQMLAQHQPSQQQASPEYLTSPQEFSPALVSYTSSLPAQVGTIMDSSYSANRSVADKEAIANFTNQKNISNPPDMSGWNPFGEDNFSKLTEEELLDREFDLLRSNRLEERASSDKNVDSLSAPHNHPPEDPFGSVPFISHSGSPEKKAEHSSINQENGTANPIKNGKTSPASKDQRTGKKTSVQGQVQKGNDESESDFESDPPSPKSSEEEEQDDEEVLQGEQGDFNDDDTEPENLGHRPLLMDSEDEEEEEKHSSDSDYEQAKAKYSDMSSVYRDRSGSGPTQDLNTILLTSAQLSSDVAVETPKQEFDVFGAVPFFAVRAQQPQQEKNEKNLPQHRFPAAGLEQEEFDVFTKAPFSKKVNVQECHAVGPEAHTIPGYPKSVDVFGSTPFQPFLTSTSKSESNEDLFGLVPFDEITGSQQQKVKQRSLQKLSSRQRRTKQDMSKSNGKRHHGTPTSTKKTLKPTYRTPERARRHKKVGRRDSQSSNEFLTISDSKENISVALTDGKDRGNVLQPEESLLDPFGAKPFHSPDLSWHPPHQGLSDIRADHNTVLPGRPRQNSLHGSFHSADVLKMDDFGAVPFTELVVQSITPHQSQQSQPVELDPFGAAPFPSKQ
T8 sequence (Q86Y07 whole entry): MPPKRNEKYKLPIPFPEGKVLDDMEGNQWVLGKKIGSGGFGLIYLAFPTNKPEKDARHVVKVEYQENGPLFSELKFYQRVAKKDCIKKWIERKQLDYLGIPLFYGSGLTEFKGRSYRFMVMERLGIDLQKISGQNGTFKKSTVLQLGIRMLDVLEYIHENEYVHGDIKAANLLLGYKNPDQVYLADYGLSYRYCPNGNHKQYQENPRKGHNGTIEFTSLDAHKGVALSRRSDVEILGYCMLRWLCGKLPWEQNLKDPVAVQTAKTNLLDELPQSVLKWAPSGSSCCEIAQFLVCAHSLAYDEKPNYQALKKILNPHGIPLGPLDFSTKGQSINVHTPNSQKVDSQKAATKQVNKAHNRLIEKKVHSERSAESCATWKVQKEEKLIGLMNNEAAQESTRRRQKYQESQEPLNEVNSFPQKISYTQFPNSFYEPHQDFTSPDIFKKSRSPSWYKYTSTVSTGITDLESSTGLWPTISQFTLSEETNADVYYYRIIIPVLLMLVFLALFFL
T1 sequence (Q9H093 whole entry): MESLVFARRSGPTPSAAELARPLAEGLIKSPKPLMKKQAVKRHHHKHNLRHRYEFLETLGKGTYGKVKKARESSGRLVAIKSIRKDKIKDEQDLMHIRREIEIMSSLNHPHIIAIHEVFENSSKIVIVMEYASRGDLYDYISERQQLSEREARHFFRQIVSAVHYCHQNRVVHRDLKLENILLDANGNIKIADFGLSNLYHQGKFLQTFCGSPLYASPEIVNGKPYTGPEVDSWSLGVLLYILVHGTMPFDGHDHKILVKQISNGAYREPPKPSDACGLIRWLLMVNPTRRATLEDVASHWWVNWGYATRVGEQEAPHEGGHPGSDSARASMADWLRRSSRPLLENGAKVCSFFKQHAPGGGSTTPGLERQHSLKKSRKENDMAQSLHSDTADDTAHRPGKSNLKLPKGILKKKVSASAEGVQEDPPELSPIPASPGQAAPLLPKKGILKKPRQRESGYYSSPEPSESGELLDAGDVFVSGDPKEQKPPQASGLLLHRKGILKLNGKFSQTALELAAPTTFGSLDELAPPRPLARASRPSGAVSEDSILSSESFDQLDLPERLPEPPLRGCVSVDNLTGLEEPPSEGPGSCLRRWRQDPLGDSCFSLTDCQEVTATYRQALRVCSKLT
T19 sequence (P07949 29-1114 M918T): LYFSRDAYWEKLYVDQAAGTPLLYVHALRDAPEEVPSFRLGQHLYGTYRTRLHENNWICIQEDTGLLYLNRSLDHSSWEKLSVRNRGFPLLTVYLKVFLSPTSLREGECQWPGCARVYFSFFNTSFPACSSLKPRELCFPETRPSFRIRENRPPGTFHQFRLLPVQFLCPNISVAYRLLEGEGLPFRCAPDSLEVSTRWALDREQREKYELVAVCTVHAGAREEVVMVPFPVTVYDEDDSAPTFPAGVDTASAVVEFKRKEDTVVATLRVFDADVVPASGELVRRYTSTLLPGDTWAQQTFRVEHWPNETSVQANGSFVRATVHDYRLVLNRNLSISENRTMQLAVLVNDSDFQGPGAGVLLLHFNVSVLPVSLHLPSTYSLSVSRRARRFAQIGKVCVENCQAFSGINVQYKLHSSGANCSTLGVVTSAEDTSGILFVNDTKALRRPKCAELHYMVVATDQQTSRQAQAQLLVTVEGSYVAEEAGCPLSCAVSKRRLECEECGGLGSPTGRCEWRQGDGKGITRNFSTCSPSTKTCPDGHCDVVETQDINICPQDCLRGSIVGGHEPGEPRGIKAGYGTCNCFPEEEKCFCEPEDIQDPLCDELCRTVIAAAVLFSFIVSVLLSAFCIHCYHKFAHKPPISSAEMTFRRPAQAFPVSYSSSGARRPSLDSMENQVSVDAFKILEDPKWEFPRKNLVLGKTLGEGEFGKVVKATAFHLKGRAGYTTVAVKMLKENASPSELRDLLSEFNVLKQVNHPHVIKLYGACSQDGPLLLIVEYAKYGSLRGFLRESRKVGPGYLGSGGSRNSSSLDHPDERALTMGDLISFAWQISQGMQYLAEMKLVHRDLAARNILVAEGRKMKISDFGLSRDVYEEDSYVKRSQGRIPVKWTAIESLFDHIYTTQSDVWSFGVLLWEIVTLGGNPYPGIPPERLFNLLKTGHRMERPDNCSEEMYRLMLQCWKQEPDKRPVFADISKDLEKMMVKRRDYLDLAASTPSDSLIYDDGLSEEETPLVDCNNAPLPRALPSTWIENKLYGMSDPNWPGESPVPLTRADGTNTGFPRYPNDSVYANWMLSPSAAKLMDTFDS
T17 sequence (P06239 whole entry): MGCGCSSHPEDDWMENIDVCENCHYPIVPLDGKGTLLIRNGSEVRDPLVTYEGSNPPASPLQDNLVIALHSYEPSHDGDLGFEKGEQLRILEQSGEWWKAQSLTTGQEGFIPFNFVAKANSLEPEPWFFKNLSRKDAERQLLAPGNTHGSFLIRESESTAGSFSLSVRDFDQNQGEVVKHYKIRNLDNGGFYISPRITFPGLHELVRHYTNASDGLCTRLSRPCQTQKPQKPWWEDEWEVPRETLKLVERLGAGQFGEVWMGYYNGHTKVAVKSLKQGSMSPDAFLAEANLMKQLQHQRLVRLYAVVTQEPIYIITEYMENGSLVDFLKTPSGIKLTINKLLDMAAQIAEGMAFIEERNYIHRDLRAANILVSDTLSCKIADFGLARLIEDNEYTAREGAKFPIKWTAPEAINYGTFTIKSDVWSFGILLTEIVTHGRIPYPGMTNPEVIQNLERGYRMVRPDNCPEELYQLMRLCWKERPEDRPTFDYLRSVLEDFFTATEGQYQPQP
T12 sequence (P45984 whole entry): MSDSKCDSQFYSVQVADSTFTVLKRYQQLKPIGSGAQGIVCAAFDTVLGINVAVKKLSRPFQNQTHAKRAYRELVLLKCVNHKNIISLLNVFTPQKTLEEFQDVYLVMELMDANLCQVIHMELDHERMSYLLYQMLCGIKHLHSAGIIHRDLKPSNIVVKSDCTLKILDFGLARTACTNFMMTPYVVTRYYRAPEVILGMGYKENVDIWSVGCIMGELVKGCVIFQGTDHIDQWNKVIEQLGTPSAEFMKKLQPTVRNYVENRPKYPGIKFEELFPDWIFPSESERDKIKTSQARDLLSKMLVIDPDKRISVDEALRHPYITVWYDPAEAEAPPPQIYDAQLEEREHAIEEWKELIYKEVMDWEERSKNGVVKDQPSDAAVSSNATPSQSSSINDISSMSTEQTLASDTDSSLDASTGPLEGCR
T15 sequence (Q15349 415-672 limits assumed): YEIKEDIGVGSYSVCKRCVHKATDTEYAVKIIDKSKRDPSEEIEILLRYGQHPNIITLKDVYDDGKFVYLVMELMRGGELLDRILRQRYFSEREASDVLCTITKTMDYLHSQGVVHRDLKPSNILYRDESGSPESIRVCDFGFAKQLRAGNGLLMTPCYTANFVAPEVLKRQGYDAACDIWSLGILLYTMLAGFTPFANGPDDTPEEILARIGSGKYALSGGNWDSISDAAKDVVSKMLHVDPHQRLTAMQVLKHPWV
T16 sequence (P29597 589-875 limits assumed): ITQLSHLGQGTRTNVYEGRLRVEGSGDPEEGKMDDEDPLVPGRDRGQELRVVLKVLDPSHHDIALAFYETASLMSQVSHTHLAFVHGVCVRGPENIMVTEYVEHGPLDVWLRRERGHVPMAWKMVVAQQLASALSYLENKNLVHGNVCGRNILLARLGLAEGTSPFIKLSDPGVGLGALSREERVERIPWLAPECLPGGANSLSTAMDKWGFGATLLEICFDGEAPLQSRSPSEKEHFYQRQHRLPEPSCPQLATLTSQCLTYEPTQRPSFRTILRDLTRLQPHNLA

CN1CCN(c2ccc(Nc3nc(N4OCC[C@H]4c4ccccc4)c4cc[nH]c4n3)cc2)CC1 [Example 74, (S)-N-(4-(4-methylpiperazin-1-yl)phenyl)-4-(3-phenylisoxazolidin-2-yl)-7H-pyrrolo[2,3-d]pyrimidin-2-amine]
remaining binding at 1 µM (SNARK): 3.7% | remaining binding at 1 µM (EGFR(L861Q)): 30% | remaining binding at 1 µM (MAP4K5): 21% | remaining binding at 1 µM (LRRK2): 28% | remaining binding at 1 µM [1]: 8.4% | remaining binding at 1 µM (FLT3(N841I)): 0.3% | remaining binding at 1 µM [2]: 24% | remaining binding at 1 µM (VRK2): 33% | remaining binding at 1 µM (DYRK1B): 11% | remaining binding at 1 µM (EGFR(L858R, T790M)): 17% | remaining binding at 1 µM (JNK1): 2.7% | remaining binding at 1 µM (JNK2): 29% | remaining binding at 1 µM (PRP4): 20% | remaining binding at 1 µM (CDK4-cyclinD3): 3% | remaining binding at 1 µM [3]: 17% | remaining binding at 1 µM [4]: 2.6% | remaining binding at 1 µM (LCK): 12% | remaining binding at 1 µM (FLT3(D835Y)): 0.15% | remaining binding at 1 µM (RET(M918T)): 20% | remaining binding at 1 µM (BIKE): 1.8% | remaining binding at 1 µM (EPHB4): 31% | remaining binding at 1 µM (FLT3(D835V)): 1.7% | remaining binding at 1 µM (DLK): 9.2% | remaining binding at 1 µM (FLT3(K663Q)): 2.3% | remaining binding at 1 µM (PYK2): 27% | remaining binding at 1 µM (SRPK3): 13% | remaining binding at 1 µM (MST3): 32% | remaining binding at 1 µM (MET): 4.5% | remaining binding at 1 µM (TTK): 13% | remaining binding at 1 µM (LOK): 8.7% | remaining binding at 1 µM [5]: 0% | remaining binding at 1 µM (TNIK): 27% | remaining binding at 1 µM (MERTK): 29% | remaining binding at 1 µM (STK16): 26%

From patent US20220242870A1, “HETEROCYCLE-FUSED PYRIMIDINE DERIVATIVE AND USE THEREOF” (VORONOI Inc., priority 2019, published 2022)
